{"source": "patent US10721967B2", "about": "“Vaporizing devices and methods for delivering a compound using the same” (Altria Client Services LLC, priority 2016, dated 2020)", "key": {"[1]": {"experiment": "Single-ascending dose pharmacokinetic study: plasma THC after a 3 second inhalation from the vaporizer device", "assay_type": "in vivo, human", "settings": "for AUC(0-inf) / Tmax / Cmax: human, plasma, inhaled, single inhalation, mean ± SD; for Cmax: read-out: Δ^9-THC Cmax", "procedure": "A study was conducted to investigate the pharmacokinetics, efficacy, safety, and ease of use of a vaporizer device of the present technology for treating disorders in humans. Volunteers were recruited for participation in the study and met the following inclusion criteria: (a) age >30 and <70 years; (b) no known medical problems; and (c) if applicable, negative urine pregnancy test (β human […] gonadotropin pregnancy test). Exclusion criteria were the presence of (a) significant cardiac or pulmonary disease, (b) history of a psychotic or anxiety disorder, (c) pregnancy, pregnancy attempt or breastfeeding, (d) presence of a neuropathic or non-neuropathic pain disorder, (e) low systolic blood pressure, ([…]) (f) diabetes (g) first degree family history of psychotic or anxiety disorder, (h) history of drug addiction, (i) history of drug misuse, (j) concurrent use the following drugs: rifampicin, rifabutin, carbamazepine, or phenobarbital, primidone, (k) using the following plants: Hypericum perforatum, troglitazone, (l) alcohol consumption up to 12 hours prior to the study, (m) abnormal parameters such as heart rate above 100 BPM, blood pressure below 90 mm Hg (systolic), saturation below 91 percent, (n) recreational Cannabis use up to 72 hours before the study, (o) any chronic use of drugs, and (q) age less than 30 or more than 70.\nThe participants were divided into four dose related groups each group included 3 volunteers. After 3 successful training inhalations, each participant inhaled 3 seconds of a single dose. Dose groups were 10±0.1 mg, 15±0.1 mg, 20±0.1 mg, 25±0.1 mg of THC.\nBlood samples were drawn immediately before and at 2, 3, 4, 10, 30 minutes after inhalation for monitoring of plasma levels of THC and its active metabolite Δ^9 Carboxy-THC. The blood was collected in 13×75 mm purple-top Vacutainer tubes containing EDTA. Samples were kept on ice and centrifuged within 30 minutes. Plasma samples were aliquoted into 3.6-mL polypropylene Nunc cryotubes (Thomas Scientific, NJ, USA), stored frozen at −20° C., and analyzed within 6 weeks. The cannabinoid analysis was performed at Pactox (Pacific Toxicology Laboratories) Labs by multidimensional gas chromatography mass spectrometry method.\nThe study device was as described above in connection with the figures and designed to vaporize up to 80 doses of processed cannabis fibs, resulting in the pulmonary delivery of compounds. The inhaler consisted of a multi-dose cartridge, indication light, and power switch. The cartridge was preloaded with multiple pre-weighed 10.0±0.1 mg, 15.0±0.1 mg, 20.0±0.1 mg, and 25.0±0.1 mg doses of processed cannabis flos. The vaporization process was segmental and triggered by the volunteer pressing the operating button. The segmental evaporation process is aimed at turning THCA into THC^1 and is done by: (1) stage I—heating the material to 100° C. for 9 seconds; (2) stage II—heating the material to 150° C. for 9 seconds; (3) stage III—heating the material to 190° C. to 200° C. (evaporation temperature) for the 3 seconds of inhalation. The transition to the next dose/inhalation is performed by using a mechanical rotation wheel. The device engages automatic thermal control that ensures a complete, high-efficiency delivery of carmabinoid vapors to the lungs. The device allowed for “single inhalation” dose resolution, instantaneous administration, and required no preprocessing or any subject intervention other than the inhalation itself.\nThe cannabis flowers used in the study were of the Alaska strain provided by “Tikun Olam.” This strain is a hybrid of 70% sativa and 30% indica strains. This strain consists of 20-22% THC and 0% CBD. The processed cannabis flowers used in this study were tested for THC by modified gas-chromatography method without derivatization 1.8 resulting in Δ^9-THC content of 20.08%. The flowers were loaded into the inhaler so as to retain the natural cannabis compounds in. their raw form. […]"}, "[2]": {"experiment": "Blood pressure, pulse rate and oxygen saturation after inhalation", "assay_type": "in vivo, human", "settings": "for DBP (diastolic blood pressure) / HR (heart rate) / SBP (systolic blood pressure) / SO2 (blood oxygen saturation): mean value", "procedure": "(§1) Blood pressure, pulse rate, and oxygen saturation were also recorded at baseline, 30, 60, 90, and 120 minutes post inhalation. A cognitive test was conducted using the Short Blessed Test prior to the experiment at 30, 60 minutes after inhalation and at the end of the experiment.\n(§2) The primary outcome of the study was to characterize the inter-individual variability of Δ^9-THC during the absorption phase. The secondary outcome included (a) monitoring adverse effects, (b) blood pressure, and heart rate; and (c) monitoring the response of single-ascending dose with the use of the study device. In addition, the influence of the use of the trial device on the cognitive status of the subject was assessed. A Short Blessed Test cognitive test^19 was used for the purpose of the trial."}, "[3]": {"experiment": "Short Blessed Test cognitive status evaluation", "assay_type": "in vivo, human", "settings": "for SET 0 min (Short Blessed Test score): 0 min (prior to inhalation); for SET 0 min (Short Blessed Test score) / SET 30 min (Short Blessed Test score) / SET 120 min (Short Blessed Test score): mean; for SET 30 min (Short Blessed Test score): 30 min after inhalation", "procedure": "as §1, §2\nThe Short Blessed Test, a six-item test, was used as a diagnostic tool enabling the cognitive status evaluation of the volunteers. Each item was scored and total scores were calculated on the following cut off points: Normal or minimally impaired: 0-8, Moderately impaired: 9-19, Severely impaired: 20-33."}, "[4]": {"settings": "intravenous THC administration, cited from earlier work"}, "[5]": {"settings": "ascending doses 10-25 mg, inhalation"}}, "note": "Where two headings read alike, the source gives them in different places."}
{"smiles": "CCCCCc1cc(O)c2c(c1)OC(C)(C)[C@@H]1CCC(C)=C[C@@H]21", "note": "[THC, tetrahydrocannabinol]", "values": [{"measurement": "change in time needed to reach maximum concentration with ascending doses", "setting": "[1]; [5]", "value": "no significant change"}, {"measurement": "change of AUC with ascending doses", "setting": "[1]; [5]", "value": "same linear increase"}, {"measurement": "change of maximum concentration with ascending doses", "setting": "[1]; [5]", "value": "linear increase"}, {"measurement": "AUC(0-inf)", "setting": "[1]; 0.1 mg, Group IV, 25 ± 0.1 mg", "value": 16.2, "unit": "ng·h/mL"}, {"measurement": "Tmax", "setting": "[1]; 0.1 mg, Group IV, 25 ± 0.1 mg", "value": 3, "unit": "min"}, {"measurement": "Cmax", "setting": "[1]; 0.1 mg, Group IV, 25 ± 0.1 mg", "value": "88.6 ± 14.8", "unit": "ng/mL"}, {"measurement": "AUC(0-inf)", "setting": "[1]; Group I, 10 ± 0.1 mg", "value": 7.36, "unit": "ng·h/mL"}, {"measurement": "Tmax", "setting": "[1]; Group I, 10 ± 0.1 mg", "value": 3.67, "unit": "min"}, {"measurement": "Cmax", "setting": "[1]; Group I, 10 ± 0.1 mg", "value": "35.4 ± 5.97", "unit": "ng/mL"}, {"measurement": "AUC(0-inf)", "setting": "[1]; Group II, 15 ± 0.1 mg", "value": 10.4, "unit": "ng·h/mL"}, {"measurement": "Tmax", "setting": "[1]; Group II, 15 ± 0.1 mg", "value": 3.33, "unit": "min"}, {"measurement": "Cmax", "setting": "[1]; Group II, 15 ± 0.1 mg", "value": "51.5 ± 13.8", "unit": "ng/mL"}, {"measurement": "AUC(0-inf)", "setting": "[1]; Group III, 20 ± 0.1 mg", "value": 11.6, "unit": "ng·h/mL"}, {"measurement": "Tmax", "setting": "[1]; Group III, 20 ± 0.1 mg", "value": 2.67, "unit": "min"}, {"measurement": "Cmax", "setting": "[1]; Group III, 20 ± 0.1 mg", "value": "72.4 ± 15.9", "unit": "ng/mL"}, {"measurement": "DBP (diastolic blood pressure)", "setting": "[2]; 10 mg dose group", "value": "69.46 ± 7.86", "unit": "mmHg"}, {"measurement": "HR (heart rate)", "setting": "[2]; 10 mg dose group", "value": "71.66 ± 10.14"}, {"measurement": "SBP (systolic blood pressure)", "setting": "[2]; 10 mg dose group", "value": "113.4 ± 10.23", "unit": "mmHg"}, {"measurement": "SO2 (blood oxygen saturation)", "setting": "[2]; 10 mg dose group", "value": "99.93 ± 0.25", "unit": "%"}, {"measurement": "DBP (diastolic blood pressure)", "setting": "[2]; 15 mg dose group", "value": "63.85 ± 9.78", "unit": "mmHg"}, {"measurement": "HR (heart rate)", "setting": "[2]; 15 mg dose group", "value": "79 ± 13.37"}, {"measurement": "SBP (systolic blood pressure)", "setting": "[2]; 15 mg dose group", "value": "114.93 ± 6.88", "unit": "mmHg"}, {"measurement": "SO2 (blood oxygen saturation)", "setting": "[2]; 15 mg dose group", "value": 100, "unit": "%"}, {"measurement": "DBP (diastolic blood pressure)", "setting": "[2]; 20 mg dose group", "value": "71.78 ± 14.95", "unit": "mmHg"}, {"measurement": "HR (heart rate)", "setting": "[2]; 20 mg dose group", "value": "68.35 ± 5.83"}, {"measurement": "SBP (systolic blood pressure)", "setting": "[2]; 20 mg dose group", "value": "120.14 ± 28.03", "unit": "mmHg"}, {"measurement": "SO2 (blood oxygen saturation)", "setting": "[2]; 20 mg dose group", "value": "99.92 ± 0.26", "unit": "%"}, {"measurement": "DBP (diastolic blood pressure)", "setting": "[2]; 25 mg dose group", "value": "80.57 ± 8.92", "unit": "mmHg"}, {"measurement": "HR (heart rate)", "setting": "[2]; 25 mg dose group", "value": "77.57 ± 17.74"}, {"measurement": "SBP (systolic blood pressure)", "setting": "[2]; 25 mg dose group", "value": "130 ± 16.62", "unit": "mmHg"}, {"measurement": "SO2 (blood oxygen saturation)", "setting": "[2]; 25 mg dose group", "value": "99.42 ± 0.9", "unit": "%"}, {"measurement": "change in blood pressure, heart rate, or blood oxygen saturation", "setting": "[2]; during the time frame of the study, all dose groups", "value": "no significant change"}, {"measurement": "SET 0 min (Short Blessed Test score)", "setting": "[3]; 10 mg dose group", "value": "0.66 ± 0.94"}, {"measurement": "SET 30 min (Short Blessed Test score)", "setting": "[3]; 10 mg dose group", "value": "2.33 ± 3.29"}, {"measurement": "SET 120 min (Short Blessed Test score)", "setting": "[3]; 10 mg dose group", "value": "2.66 ± 0.47"}, {"measurement": "SET 0 min (Short Blessed Test score)", "setting": "[3]; 15 mg dose group", "value": 0}, {"measurement": "SET 30 min (Short Blessed Test score)", "setting": "[3]; 15 mg dose group", "value": "1.33 ± 1.88"}, {"measurement": "SET 120 min (Short Blessed Test score)", "setting": "[3]; 15 mg dose group", "value": "3 ± 0.81"}, {"measurement": "SET 0 min (Short Blessed Test score)", "setting": "[3]; 20 mg dose group", "value": "2 ± 1.63"}, {"measurement": "SET 30 min (Short Blessed Test score)", "setting": "[3]; 20 mg dose group", "value": "0.66 ± 0.94"}, {"measurement": "SET 120 min (Short Blessed Test score)", "setting": "[3]; 20 mg dose group", "value": "0.66 ± 0.94"}, {"measurement": "SET 0 min (Short Blessed Test score)", "setting": "[3]; 25 mg dose group", "value": "2 ± 2.82"}, {"measurement": "SET 30 min (Short Blessed Test score)", "setting": "[3]; 25 mg dose group", "value": 0}, {"measurement": "SET 120 min (Short Blessed Test score)", "setting": "[3]; 25 mg dose group", "value": 0}, {"measurement": "cognitive impairment (Short Blessed Test)", "setting": "[3]; all volunteers, 0-8 normal or minimally impaired", "value": "minimal cognitive impairment"}, {"measurement": "Cmax of Δ^9-THC", "setting": "[4]; Reference 1", "value": 43.8, "unit": "ng/mL"}, {"measurement": "Cmax of Δ^9-THC", "setting": "[4]; Reference 2", "value": 32.8, "unit": "ng/mL"}, {"measurement": "Cmax of Δ^9-THC", "setting": "[4]; Reference 3", "value": 23.8, "unit": "ng/mL"}]}
